Results published in patent publication US10807944B2, “HDAC inhibitor compounds and methods of treatment” (priority 2014, dated 2020).
Read-outs that look alike come from different tables or passages of the source.

Key:
MDA-MB-231 cells [1] = details: MDA-MB-231 monolayer scratch; UF010 at 1 μM
in vivo = details: mouse, plasma, po, 80 mg/kg
HDAC1 [2] = molecular target: T1, HDAC1 (Homo sapiens (Human), UniProt Q13547); assay: In vitro HDAC1 inhibition of HTS hits (HDAC I/II-Glo reagents); assay type: biochemical; details: HTS follow-up
T1 sequence (Q13547 whole entry): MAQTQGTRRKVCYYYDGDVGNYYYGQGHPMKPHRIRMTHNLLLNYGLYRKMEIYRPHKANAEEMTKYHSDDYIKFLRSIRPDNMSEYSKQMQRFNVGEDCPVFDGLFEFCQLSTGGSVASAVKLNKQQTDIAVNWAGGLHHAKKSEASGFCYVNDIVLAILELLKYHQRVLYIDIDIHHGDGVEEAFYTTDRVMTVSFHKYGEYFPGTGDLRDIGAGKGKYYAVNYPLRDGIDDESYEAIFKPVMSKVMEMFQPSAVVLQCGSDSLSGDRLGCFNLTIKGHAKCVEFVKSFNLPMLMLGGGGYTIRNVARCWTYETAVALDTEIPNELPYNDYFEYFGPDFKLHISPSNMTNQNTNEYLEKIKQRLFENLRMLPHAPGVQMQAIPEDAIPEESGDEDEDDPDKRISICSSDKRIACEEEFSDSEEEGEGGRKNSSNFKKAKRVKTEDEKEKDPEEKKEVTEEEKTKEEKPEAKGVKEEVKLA

MDA-MB-231 cells [3] = assay: Global gene expression (Affymetrix Human Transcriptome Array 2.0) with Ingenuity Pathway Analysis; assay type: cell-based; details: 24 h; for Predicated activation state, Biological Functions / Predicated activation state, Upstream Regulators: 1 μM
HDAC3 [4] = molecular target: T2, HDAC3 (Homo sapiens (Human), UniProt O15379); assay: HDAC3 in vitro inhibition, dose response; assay type: biochemical
T2 sequence (O15379 whole entry): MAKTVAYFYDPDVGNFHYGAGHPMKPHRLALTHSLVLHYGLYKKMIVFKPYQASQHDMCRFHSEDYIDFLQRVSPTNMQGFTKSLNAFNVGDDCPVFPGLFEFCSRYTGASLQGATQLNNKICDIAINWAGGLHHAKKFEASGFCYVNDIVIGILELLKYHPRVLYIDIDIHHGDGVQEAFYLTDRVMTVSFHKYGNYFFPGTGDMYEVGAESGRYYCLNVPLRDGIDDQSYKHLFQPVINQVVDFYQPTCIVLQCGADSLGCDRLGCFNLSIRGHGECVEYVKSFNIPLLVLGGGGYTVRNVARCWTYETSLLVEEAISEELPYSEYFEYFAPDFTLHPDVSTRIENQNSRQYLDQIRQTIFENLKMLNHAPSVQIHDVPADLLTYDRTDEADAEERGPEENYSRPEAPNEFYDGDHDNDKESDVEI
T2 sequence (Q9Y618 395-489 partner): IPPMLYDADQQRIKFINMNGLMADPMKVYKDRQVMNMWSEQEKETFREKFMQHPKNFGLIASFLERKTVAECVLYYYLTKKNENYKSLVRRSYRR

HDAC1 [5] = molecular target: T1, HDAC1; assay: HDAC-1 inhibition potency, luminescence readout; assay type: biochemical; details: Table 6, luminescence readout
From the text: (§1) Compounds were examined for their HDAC inhibitory activity and their effect on cancer cell viability (MDA-MB-231 cells).

HCT116 cells [6] = assay: H3K18ac after 6 h pulse treatment and drug washout; assay type: cell-based
MDA-MB-231 cells [7] = assay: Cancer cell viability (CellTiter-Glo); assay type: cell-based; details: Homo sapiens, MDA-MB-231, read-out: Cancer cell (MDA-MB-231) killing IC50
[8] = Oral tolerability / maximal tolerated dose in mice; details: mouse
HepG2 cells [9] = assay: cells; details: Homo sapiens
HDAC3 [10] = molecular target: T2, HDAC3; assay: HDAC-3 inhibition potency, luminescence readout; assay type: biochemical; details: Table 6, luminescence readout
[11] = mouse, in vivo, po
HepG2 cells [12] = system: HepG2 cells
HDAC4 = HDAC4 (Homo sapiens (Human), UniProt P56524); assay: HDAC4 in vitro inhibition, dose response; assay type: biochemical; details: Table 1; read-out: Inhibitory Potency (IC50) HDAC 4
CDKN1A = assay: qPCR of CDKN1A encoding p21; assay type: cell-based; details: MDA-MB-231
HDAC7 = HDAC7 (Homo sapiens (Human), UniProt Q8WUI4); assay: HDAC7 in vitro inhibition, dose response; assay type: biochemical; details: Table 1; read-out: Inhibitory Potency (IC50) HDAC 7
Sequence of HDAC7 (Q8WUI4 whole entry): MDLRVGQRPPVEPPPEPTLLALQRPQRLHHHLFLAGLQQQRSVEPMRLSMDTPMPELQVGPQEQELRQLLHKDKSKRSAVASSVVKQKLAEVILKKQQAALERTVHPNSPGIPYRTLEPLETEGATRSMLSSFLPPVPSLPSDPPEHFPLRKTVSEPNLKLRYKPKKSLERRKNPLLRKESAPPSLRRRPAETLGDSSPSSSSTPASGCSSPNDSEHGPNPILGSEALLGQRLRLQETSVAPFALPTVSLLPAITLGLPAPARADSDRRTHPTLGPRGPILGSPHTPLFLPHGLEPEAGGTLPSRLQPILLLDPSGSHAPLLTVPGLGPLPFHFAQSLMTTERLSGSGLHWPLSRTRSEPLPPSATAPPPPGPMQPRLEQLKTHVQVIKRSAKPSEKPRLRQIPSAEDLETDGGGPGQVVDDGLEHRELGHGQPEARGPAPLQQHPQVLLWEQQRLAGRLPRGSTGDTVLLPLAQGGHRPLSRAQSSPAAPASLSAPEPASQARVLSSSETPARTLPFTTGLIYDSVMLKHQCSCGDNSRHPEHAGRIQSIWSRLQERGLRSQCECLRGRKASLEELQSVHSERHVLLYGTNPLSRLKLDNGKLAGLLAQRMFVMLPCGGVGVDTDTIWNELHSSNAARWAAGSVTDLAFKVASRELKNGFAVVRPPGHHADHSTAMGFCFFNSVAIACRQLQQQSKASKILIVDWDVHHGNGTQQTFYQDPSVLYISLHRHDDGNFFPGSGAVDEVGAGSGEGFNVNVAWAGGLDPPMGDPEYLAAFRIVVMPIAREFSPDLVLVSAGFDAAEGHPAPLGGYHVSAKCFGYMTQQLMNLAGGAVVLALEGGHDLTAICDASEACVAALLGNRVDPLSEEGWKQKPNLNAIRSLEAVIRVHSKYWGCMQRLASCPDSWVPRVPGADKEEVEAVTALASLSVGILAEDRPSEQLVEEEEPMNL

HDAC2 [13] = molecular target: T3, HDAC2 (Homo sapiens (Human), UniProt Q92769); assay: HDAC2 in vitro inhibition, dose response; assay type: biochemical
T3 sequence (Q92769 whole entry): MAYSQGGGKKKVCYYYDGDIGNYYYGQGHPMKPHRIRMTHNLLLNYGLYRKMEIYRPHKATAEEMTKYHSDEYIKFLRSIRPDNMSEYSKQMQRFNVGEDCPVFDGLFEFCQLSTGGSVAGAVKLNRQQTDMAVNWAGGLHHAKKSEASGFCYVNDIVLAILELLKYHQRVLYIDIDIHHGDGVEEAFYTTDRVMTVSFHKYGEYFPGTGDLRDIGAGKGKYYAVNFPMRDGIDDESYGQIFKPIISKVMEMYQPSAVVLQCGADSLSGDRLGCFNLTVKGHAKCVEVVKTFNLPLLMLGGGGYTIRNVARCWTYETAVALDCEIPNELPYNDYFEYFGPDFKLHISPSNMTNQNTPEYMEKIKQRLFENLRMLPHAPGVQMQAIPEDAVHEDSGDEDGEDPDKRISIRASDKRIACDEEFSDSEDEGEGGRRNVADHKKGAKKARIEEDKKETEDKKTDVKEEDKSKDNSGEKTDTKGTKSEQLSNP

HCT116 cells [14] = assay: Histone acetylation by Western blotting; assay type: cell-based
MDA-MB-468 cells = assay: Viability of MDA-MB-468 cells, with or without HDAC shRNA; details: for IC50: Homo sapiens
MDA-MB-231 cells [15] = assay: Cell cycle analysis by FACS; assay type: cell-based; details: MDA-MB-231, 24 h, dose-dependent
HDAC2 [16] = molecular target: T3, HDAC2; assay: HDAC-2 inhibition potency, luminescence readout; assay type: biochemical; details: Table 6, luminescence readout
From the text: as §1

HDAC9 = HDAC9 (Homo sapiens (Human), UniProt Q9UKV0); assay: HDAC9 in vitro inhibition, dose response; assay type: biochemical; details: Table 1; read-out: Inhibitory Potency (IC50) HDAC 9
HDAC10 = HDAC10 (Homo sapiens (Human), UniProt Q969S8); assay: HDAC10 in vitro inhibition, dose response; assay type: biochemical; details: Table 1; read-out: Inhibitory Potency (IC50) HDAC 10
Sequence of HDAC10 (Q969S8 whole entry): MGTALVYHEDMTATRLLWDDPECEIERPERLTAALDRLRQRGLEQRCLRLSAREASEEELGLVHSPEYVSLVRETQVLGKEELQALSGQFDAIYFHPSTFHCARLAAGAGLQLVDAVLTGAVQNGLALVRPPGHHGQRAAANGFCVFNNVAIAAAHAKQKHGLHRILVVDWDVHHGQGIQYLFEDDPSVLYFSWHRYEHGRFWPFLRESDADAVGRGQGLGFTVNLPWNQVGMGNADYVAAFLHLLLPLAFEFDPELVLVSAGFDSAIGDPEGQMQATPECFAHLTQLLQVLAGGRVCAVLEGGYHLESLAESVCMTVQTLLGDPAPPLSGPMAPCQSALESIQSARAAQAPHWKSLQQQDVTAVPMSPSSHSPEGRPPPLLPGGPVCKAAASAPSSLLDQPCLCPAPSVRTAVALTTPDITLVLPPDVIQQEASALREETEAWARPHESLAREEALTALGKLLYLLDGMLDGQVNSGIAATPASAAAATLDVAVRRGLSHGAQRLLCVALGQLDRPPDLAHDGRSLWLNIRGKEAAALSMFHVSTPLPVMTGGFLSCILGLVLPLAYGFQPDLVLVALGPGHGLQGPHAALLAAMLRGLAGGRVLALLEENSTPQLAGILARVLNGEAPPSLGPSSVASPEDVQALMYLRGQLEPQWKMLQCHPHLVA

[17] = system: NCI-60 panel of cancer cell lines; assay: NCI-60 panel of cancer cell lines, cell growth; assay type: cell-based; details: all tested cell lines
HDAC8 = HDAC8 (Homo sapiens (Human), UniProt Q9BY41); assay: HDAC8 in vitro inhibition, dose response; assay type: biochemical
Sequence of HDAC8 (Q9BY41 whole entry): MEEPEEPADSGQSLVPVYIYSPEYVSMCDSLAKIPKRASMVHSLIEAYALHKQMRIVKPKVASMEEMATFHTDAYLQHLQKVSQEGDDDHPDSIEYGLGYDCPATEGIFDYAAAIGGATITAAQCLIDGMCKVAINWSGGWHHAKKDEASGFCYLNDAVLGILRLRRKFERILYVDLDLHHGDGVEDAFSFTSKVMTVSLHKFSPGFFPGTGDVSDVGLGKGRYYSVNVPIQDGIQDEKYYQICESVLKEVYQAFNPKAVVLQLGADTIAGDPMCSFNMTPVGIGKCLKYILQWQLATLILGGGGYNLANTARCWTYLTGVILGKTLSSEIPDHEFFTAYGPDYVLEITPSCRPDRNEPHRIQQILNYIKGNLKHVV

HDAC6 = HDAC6 (Homo sapiens (Human), UniProt Q9UBN7); assay: HDAC6 in vitro inhibition, dose response; assay type: biochemical
Sequence of HDAC6 (Q9UBN7 whole entry): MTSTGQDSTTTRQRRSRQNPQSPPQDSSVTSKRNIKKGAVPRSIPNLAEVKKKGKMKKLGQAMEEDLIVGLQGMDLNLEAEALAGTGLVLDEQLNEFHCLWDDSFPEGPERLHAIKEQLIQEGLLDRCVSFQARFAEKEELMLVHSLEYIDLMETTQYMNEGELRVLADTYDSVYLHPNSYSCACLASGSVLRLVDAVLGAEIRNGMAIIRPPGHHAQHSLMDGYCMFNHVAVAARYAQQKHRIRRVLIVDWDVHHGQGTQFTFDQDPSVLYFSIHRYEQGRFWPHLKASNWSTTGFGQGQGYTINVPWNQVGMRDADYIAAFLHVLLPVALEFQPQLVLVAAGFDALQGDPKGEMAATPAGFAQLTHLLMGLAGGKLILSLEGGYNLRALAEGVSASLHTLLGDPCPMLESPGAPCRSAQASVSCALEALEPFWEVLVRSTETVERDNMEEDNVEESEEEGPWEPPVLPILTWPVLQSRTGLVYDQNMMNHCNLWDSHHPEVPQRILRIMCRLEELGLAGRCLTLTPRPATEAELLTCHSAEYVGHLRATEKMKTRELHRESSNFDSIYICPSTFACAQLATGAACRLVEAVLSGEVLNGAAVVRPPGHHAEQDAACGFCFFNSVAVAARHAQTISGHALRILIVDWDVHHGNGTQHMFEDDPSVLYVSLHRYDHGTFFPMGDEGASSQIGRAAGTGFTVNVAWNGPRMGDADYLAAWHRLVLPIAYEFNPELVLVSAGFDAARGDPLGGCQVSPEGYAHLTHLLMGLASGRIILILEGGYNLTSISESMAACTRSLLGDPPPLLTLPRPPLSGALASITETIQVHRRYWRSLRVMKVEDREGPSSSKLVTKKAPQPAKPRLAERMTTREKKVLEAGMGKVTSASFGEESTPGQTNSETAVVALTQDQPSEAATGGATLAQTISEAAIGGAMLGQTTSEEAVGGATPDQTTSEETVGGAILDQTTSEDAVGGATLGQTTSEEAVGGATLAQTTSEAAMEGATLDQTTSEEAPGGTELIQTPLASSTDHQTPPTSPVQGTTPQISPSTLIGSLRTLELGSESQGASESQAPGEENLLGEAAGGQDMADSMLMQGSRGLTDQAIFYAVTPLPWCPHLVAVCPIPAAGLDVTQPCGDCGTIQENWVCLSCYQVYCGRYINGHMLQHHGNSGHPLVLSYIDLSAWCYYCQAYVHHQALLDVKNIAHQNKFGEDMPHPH

HDAC1 [18] = molecular target: T1, HDAC1; assay: HDAC1 in vitro inhibition, dose response; assay type: biochemical
HCT116 and A549 cells = assay: Acetylation of non-histone proteins by Western blotting; assay type: cell-based

## CCCCNNC(=O)c1ccc(Br)cc1 [UF010, 4-bromo-N′-butylbenzohydrazide]
MDA-MB-231 cells [1]
  cell migration to the denuded areas: markedly slowed migration
In vivo
  AUC: 6.07 µM·h
  Cmax: 5.95 µM
  Tmax: 15 min
  half-life: 74.4 min
HDAC1 [2]
  potency of HDAC1 inhibition in vitro: < 10 µM
MDA-MB-231 cells [3]; Apoptosis
  Predicated activation state, Biological Functions: Activated
MDA-MB-231 cells [3]; Butyric acid
  Predicated activation state, Upstream Regulators: Activated
MDA-MB-231 cells [3]; Cell cycle progression
  Predicated activation state, Biological Functions: Suppressed
MDA-MB-231 cells [3]; Cell survival
  Predicated activation state, Biological Functions: Suppressed
MDA-MB-231 cells [3]; Cisplatin
  Predicated activation state, Upstream Regulators: Activated
MDA-MB-231 cells [3]; ERK1/2
  Predicated activation state, Upstream Regulators: Activated
MDA-MB-231 cells [3]; HDAC1
  Predicated activation state, Upstream Regulators: Suppressed
MDA-MB-231 cells [3]; HDAC2
  Predicated activation state, Upstream Regulators: Suppressed
MDA-MB-231 cells [3]; KRAS
  Predicated activation state, Upstream Regulators: Suppressed
MDA-MB-231 cells [3]; MDA-MB-231, 1 μM
  number of genes downregulated by […]: 68
  number of genes upregulated by […]: 115
MDA-MB-231 cells [3]; MYCN
  Predicated activation state, Upstream Regulators: Suppressed
MDA-MB-231 cells [3]; Myc
  Predicated activation state, Upstream Regulators: Suppressed
MDA-MB-231 cells [3]; Necrosis
  Predicated activation state, Biological Functions: Activated
MDA-MB-231 cells [3]; Proliferation of cells
  Predicated activation state, Biological Functions: Suppressed
MDA-MB-231 cells [3]; Rb1
  Predicated activation state, Upstream Regulators: Activated
MDA-MB-231 cells [3]; Repair of DNA
  Predicated activation state, Biological Functions: Suppressed
MDA-MB-231 cells [3]; Romidepsin
  Predicated activation state, Upstream Regulators: Activated
MDA-MB-231 cells [3]; TP53
  Predicated activation state, Upstream Regulators: Activated
MDA-MB-231 cells [3]; Transcription of RNA
  Predicated activation state, Biological Functions: Suppressed
MDA-MB-231 cells [3]; Tributyrin (butyrate)
  Predicated activation state, Upstream Regulators: Activated
MDA-MB-231 cells [3]; Trichostatin A
  Predicated activation state, Upstream Regulators: Activated
MDA-MB-231 cells [3]; fulvestrant
  Predicated activation state, Upstream Regulators: Activated
HDAC3 [4]; Table 1, read-out: Inhibitory Potency (IC50) HDAC 3
  IC50: 0.06 µM
HDAC3 [4]; Table 2, read-out: HDAC 3 IC50
  IC50: 0.06 µM
HDAC1 [5]
  IC50: 0.46 µM
HCT116 cells [6]; HCT116, 6 h pulse exposure
  time at which histone acetylation (H3K18ac) was induced: ≤ 6 h
HCT116 cells [6]; HCT116, 6 h pulse then drug washout, time after drug addition
  time up to which induced acetylation was maintained: up to 96 h
HCT116 cells [6]; HCT116, washout experiment
  mode of HDAC inhibition (on/off): fast-on but slow-off
MDA-MB-231 cells [7]
  IC50: 31 µM
[8]; in vivo, po, 80 mg/kg
  MTD: > 80 mg/kg
[8]; oral once daily
  MTD: >80 mg/kg
HepG2 cells [9]; HepG2, read-out: IC50 Control
  IC50: 4.6 µM
HepG2 cells [9]; HepG2, read-out: IC50 HDAC1 shRNA
  IC50: 5.9 µM
HepG2 cells [9]; HepG2, read-out: IC50 HDAC2 shRNA
  IC50: 10.9 µM
HepG2 cells [9]; HepG2, read-out: IC50 HDAC3 shRNA
  IC50: 1.3 µM
HDAC3 [10]
  IC50: 0.19 µM
[11]
  abnormal physical or mental behaviors: No signs
HepG2 cells [12]
  reduction of cytotoxic potency by HDAC2 shRNA expression: about 2 fold
HDAC4
  IC50: > 100 µM
CDKN1A
  CDKN1A (p21) expression by quantitative real-time PCR: activation of CDKN1A
HDAC7
  IC50: > 100 µM
HDAC2 [13]; Table 1, read-out: Inhibitory Potency (IC50) HDAC 2
  IC50: 0.1 µM
HDAC2 [13]; Table 2, read-out: HDAC 2 IC50
  IC50: 0.1 µM
HCT116 cells [14]; HCT116, 0.5 μM, 24 h (FIG. 1B)
  inhibition of cellular HDACs (H4K5ac, H3K18ac): potent inhibition of cellular HDACs
HCT116 cells [14]; HCT116, 1 h exposure, TSA 0.2 μM, others 2 μM (FIG. 1A)
  accumulation of acetylated histones: consistently induced the accumulation of acetylated histones at all sites examined
MDA-MB-468 cells; MDA-MB-468, read-out: IC50 Control
  IC50: 16.1 µM
MDA-MB-468 cells; MDA-MB-468, read-out: IC50 HDAC2 shRNA
  IC50: 32.8 µM
MDA-MB-468 cells; MDA-MB-468
  reduction of cytotoxic potency by HDAC2 shRNA expression: about 2 fold
MDA-MB-231 cells [15]
  cell cycle effect: mainly blocked G1/S transition
HDAC2 [16]
  IC50: 1.33 µM
HDAC9
  IC50: > 100 µM
HDAC10
  IC50: 15.3 µM
[17]
  inhibition of proliferation, NCI-60 panel: inhibited proliferation of all tested cell lines
HDAC8; Table 1, read-out: Inhibitory Potency (IC50) HDAC 8
  IC50: 1.5 µM
HDAC8; Table 2, read-out: HDAC 8 IC50
  IC50: 1.5 µM
HDAC6; Table 1, read-out: Inhibitory Potency (IC50) HDAC 6
  IC50: 9.1 µM
HDAC6; Table 2, read-out: HDAC 6 IC50
  IC50: 9.1 µM
HDAC1 [18]; Table 1, read-out: Inhibitory Potency (IC50) HDAC 1
  IC50: 0.5 µM
HDAC1 [18]; Table 2, read-out: HDAC 1 IC50
  IC50: 0.5 µM
HCT116 and A549 cells; HCT116 and A549, 1 h, TSA 0.2 μM, UF010 2 μM
  α-tubulin acetylation: little to no effect
HCT116 and A549 cells; HCT116 and A549, after exposure to etoposide
  accumulation of acetylated p53: induced accumulation of acetylated p53
HCT116 and A549 cells; with or without etoposide treatment
  p53 stabilization: notably stabilized p53
